The values below come from PMC8818328 (European journal of medicinal chemistry, 2021).

The subject of one experiment is K562. The experiment in a line: MTT proliferation assay, K562. Format: cell-based. As to conditions: Homo sapiens, K562, 24 h, read-out: Growth inhibition (%) K562. On the technique in general: Formazan colour is commonly taken as a measure of viable cells.
The subject of experiment [1] is renal cancer cell lines A-498 and Caki-1. Kind of experiment: MTT assay, renal cancer cell lines. Format: cell-based. As to conditions: for IC50: read-out: IC50 against the tested renal cancer cell lines; for GI% renal cancer cell lines A-498 and Caki-1: 10 μM, range over both cell lines.
For the next experiment, the system named is HCT116. Kind of experiment: MTT proliferation assay, HCT116. Format: cell-based. As to conditions: Homo sapiens, HCT-116, 24 h, read-out: Growth inhibition (%) HCT116.
Experiment [2] deals with A-498 cells. Kind of experiment: Resistance development assay. As to conditions: Homo sapiens, A498, read-out: IC50 on pretreated A-498 cells.
The subject of experiment [3] is HDAC2, p-FAK, p-Akt in A-498 cells. The experiment in a line: Resistance development assay, Western blot of HDAC2, p-FAK, FAK, p-Akt, Akt. (A western blot detects proteins with antibodies after separation by electrophoresis.)
Experiment [4] deals with HDAC2 and FAK in A-498 cells. Kind of experiment: Western blot of HDAC2 expression and FAK phosphorylation, A-498 cells. Format: cell-based. As to conditions: 24 h at IC50, Western blot.
In experiment [5] the test system is HDAC2 and FAK in Caki-1 cells. Kind of experiment: Western blot of HDAC2 expression and FAK phosphorylation, Caki-1 cells. Format: cell-based. As to conditions: 24 h at IC50, Western blot.
Experiment [6] relates to HCT116, HT-29, K562, KG-1, A-498 and Caki-1 cell lines. Kind of experiment: MTT assay, all six tested cell lines. Format: cell-based. As to conditions: 10 μM, range over six cell lines.
Another experiment concerns caspase-8. Kind of experiment: Caspase-8 ELISA in A-498 cells. Format: cell-based, human. As to conditions: 24 h, control 0.274. A general note: An ELISA detects its analyte on a solid surface through an enzyme-linked reagent.
Another experiment concerns caspase-3. Kind of experiment: Active caspase-3 ELISA in A-498 cells. As to conditions: control 45.57. Format: cell-based, human.
The test system of another experiment is Caki-1 cells. The experiment in a line: Cell cycle analysis by flow cytometry, Caki-1. Type of experiment: cell-based. As to conditions: 24 h.
In another experiment the test system is STAT3 in A-498 cells. Kind of experiment: Western blot of STAT3 activation. Type of experiment: cell-based.
Another experiment has as its system caspase-9. Kind of experiment: Caspase-9 ELISA in A-498 cells. Type of experiment: cell-based, human. As to conditions: 24 h, control 4.53.
The next experiment concerns the target HDAC1 (Homo sapiens, UniProt Q13547). Kind of experiment: Fluorogenic enzymatic assay HDAC1. Format: biochemical.
Experiment [7] has as its system A-498 cells. The experiment in a line: Cell cycle analysis by flow cytometry, A-498. Format: cell-based. As to conditions: 24 h.
Setting [8] is: A-498 cells pretreated 12 weeks.
Setting [9] is: A-498 cells, both pretreated (12 weeks) and not pretreated.

One may read the inhibition as how much of the control response was suppressed. Usually IC50 stands for the midpoint of a concentration-inhibition curve.

Sequence of HDAC1 (Q13547 whole entry): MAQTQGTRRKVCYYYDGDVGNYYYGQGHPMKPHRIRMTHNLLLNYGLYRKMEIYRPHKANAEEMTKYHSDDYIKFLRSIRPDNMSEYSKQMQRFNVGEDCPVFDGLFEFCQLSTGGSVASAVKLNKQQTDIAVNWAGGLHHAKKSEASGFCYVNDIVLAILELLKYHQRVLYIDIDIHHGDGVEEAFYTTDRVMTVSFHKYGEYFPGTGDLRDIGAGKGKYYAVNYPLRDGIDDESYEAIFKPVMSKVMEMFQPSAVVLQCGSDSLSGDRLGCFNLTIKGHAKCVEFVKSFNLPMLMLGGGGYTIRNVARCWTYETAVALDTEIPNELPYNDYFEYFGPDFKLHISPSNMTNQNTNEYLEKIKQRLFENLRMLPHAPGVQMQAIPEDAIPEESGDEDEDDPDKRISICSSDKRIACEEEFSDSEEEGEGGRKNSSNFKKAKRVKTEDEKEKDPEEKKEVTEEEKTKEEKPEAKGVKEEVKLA

For the compound `Nc1ccccc1NC(=O)CCCCCSc1nnc(-c2ccncc2)n1-c1ccccc1` [Compound 7d, N-(2-aminophenyl)-6-((4-phenyl-5-(pyridin-4-yl)-4H-1,2,4-triazol-3-yl)thio)hexanamide], the inhibition at 10 µM in the experiment with K562 is 15.1%.
Take `Cn1c(SCc2ccc(C(=O)Nc3ccccc3N)cc2)nnc1-c1ccncc1` [Compound 11a, N-(2-aminophenyl)-4-(((4-methyl-5-(pyridin-4-yl)-4H-1,2,4-triazol-3-yl)thio)methyl)benzamide]: in experiment [1], the IC50 fell in the range of 6.19 to 20.9 µM.
For `Nc1ccccc1NC(=O)c1ccc(CSc2nnc(-c3ccncc3)n2-c2ccccc2)cc1` [Compound 11d, N-(2-aminophenyl)-4-(((4-phenyl-5-(pyridin-4-yl)-4H-1,2,4-triazol-3-yl)thio)methyl)benzamide], the inhibition at 10 µM in the experiment on HCT116 came to 45.4%. In experiment [1], the IC50 fell in the range of 6.19 to 20.9 µM.
`Cn1c(SCc2ccc(C(=O)NO)cc2)nnc1-c1ccncc1` [Compound 10a, N-hydroxy-4-(((4-methyl-5-(pyridin-4-yl)-4H-1,2,4-triazol-3-yl)thio)methyl)benzamide]: in the experiment with HCT116, the inhibition at 10 µM turned out to be 32.4%. For the same compound, the IC50 in experiment [1] lay in the range of 6.19 to 20.9 µM.
On to `CCCC(CCC)C(=O)O` [VPA, valproic acid, reference compound], for which the IC50 in the experiment on A-498 cells [2] amounted to 3090 µM. For the same compound, in [3] (setting [8]), the Akt phosphorylation entry is recorded as “drastic overexpression” and the HDAC2 expression entry is “lower ability to inhibit”.
Turning to `C=CCn1c(SCCCCCC(=O)Nc2ccccc2N)nnc1-c1ccncc1` [Compound 7c, 6-((4-allyl-5-(pyridin-4-yl)-4H-1,2,4-triazol-3-yl)thio)-N-(2-aminophenyl)hexanamide], the FAK phosphorylation result in [4] and in [5] was “entirely blocked” throughout. Further, in experiment [1], the “GI% renal cancer cell lines A-498 and Caki-1” value is listed as 89.34–99.81%. The IC50 in experiment [1] was in the range of 0.95 to 2.35 µM. The “GI% against all the tested cells” value in [6] is given as 40.12–99.81%.
As to `Cn1c(SCCCCCC(=O)Nc2ccccc2N)nnc1-c1ccncc1` [Compound 7a, N-(2-aminophenyl)-6-((4-methyl-5-(pyridin-4-yl)-4H-1,2,4-triazol-3-yl)thio)hexanamide], the IC50 in experiment [1] lay within 6.19 to 20.9 µM.
For `Cn1c(SCCCCCC(=O)NO)nnc1-c1ccncc1` [Compound 6a, N-hydroxy-6-((4-methyl-5-(pyridin-4-yl)-4H-1,2,4-triazol-3-yl)thio)hexanamide], the “Caspase-8 Concentration” value in the experiment with caspase-8 came to 0.888 ng/mL. Further, the Caspase-3 concentration in the experiment on caspase-3 amounted to 515.40 pg/mL. Also, the FAK phosphorylation entry is on record as “decreased” in [4], “decreased” in experiment [5] and “steady ability to inhibit” in [3] (setting [9]). In addition, the “expression level of HDAC2” value in experiment [4] and in experiment [5] was “decreased” each time. The “percentage of cells in G1 phase” value with Caki-1 cells (1.5 μM) and in the experiment with A-498 cells [7] (1.5 μM) was “decreased” throughout. For the same compound, the “percentage of cells in S phase” value in the experiment on Caki-1 cells (1.5 μM) and in the experiment with A-498 cells [7] (1.5 μM) was “minor changes” throughout. Also, the figures for the “percentage of cells in G2/M phase” value with Caki-1 cells (control 5.5%) and in the experiment on A-498 cells [7] (control 18%) were 35% and 65%, respectively. Further, in the experiment on STAT3 in A-498 cells, the STAT3 activation entry is “inhibit”. Further, the “Caspase-9 Concentration” value with caspase-9 came to 28.47 ng/mL. Further, the IC50 was 12.3 ± 1.64 µM against HDAC1 and 0.95 to 2.35 µM in [1]. Moreover, the “GI% renal cancer cell lines A-498 and Caki-1” value in experiment [1] is listed as 89.34–99.81%. In addition, in [6], the “GI% against all the tested cells” value is 40.12–99.81%. Moreover, the Akt phosphorylation result in [3] (setting [9]) is on record as “substantial ability to inhibit”. In addition, the HDAC2 expression entry in [3] (setting [9]) was “steady ability to inhibit”.
Regarding `O=C(O)CCCCCSc1nnc(-c2ccncc2)n1-c1ccccc1` [Compound 5d, 6-((4-phenyl-5-(pyridin-4-yl)-4H-1,2,4-triazol-3-yl)thio)hexanoic acid], in experiment [1], the “GI% renal cancer cell lines A-498 and Caki-1” value is listed as 89.34–99.81%; the IC50 fell in the range of 0.95 to 2.35 µM. For the same compound, the “GI% against all the tested cells” value in experiment [6] was 40.12–99.81%.
As for `C=CCn1c(SCc2ccc(C(=O)NO)cc2)nnc1-c1ccncc1` [Compound 10c, 4-(((4-allyl-5-(pyridin-4-yl)-4H-1,2,4-triazol-3-yl)thio)methyl)-N-hydroxybenzamide], the IC50 in experiment [1] lay in the range of 6.19 to 20.9 µM.
On to `O=C(NO)c1ccc(CSc2nnc(-c3ccncc3)n2-c2ccccc2)cc1` [Compound 10d, N-hydroxy-4-(((4-phenyl-5-(pyridin-4-yl)-4H-1,2,4-triazol-3-yl)thio)methyl)benzamide], for which the IC50 in [1] is 6.19 to 20.9 µM.
Consider `C=CCn1c(SCc2ccc(C(=O)Nc3ccccc3N)cc2)nnc1-c1ccncc1` [Compound 11c, 4-(((4-allyl-5-(pyridin-4-yl)-4H-1,2,4-triazol-3-yl)thio)methyl)-N-(2-aminophenyl)benzamide], for which, in [1], the “GI% renal cancer cell lines A-498 and Caki-1” value was 89.34–99.81%; the half-inhibitory concentration (IC50) lay in the range of 0.95 to 2.35 µM. Further, the “GI% against all the tested cells” value in [6] was 40.12–99.81%.
